Results reported in patent publication US7550588B2, “Homotropanes with central nervous system activity” (The Research Foundation of State University of New York, priority 2006, dated 2009).

Biological target: T1, Dopamine transporter (DAT) (Rattus norvegicus, UniProt P23977)
T1 construct: striatum and frontal cortex dissected from frozen Sprague-Dawley rat brains (Pel-Freez, Rogers, Ark.); tissue Pel-Freez, Rogers, Ark; host or cells: rat striatum membranes (frozen Sprague-Dawley rat brains)
Assay: Displacement of [125I]RTI-55 binding at dopamine transport sites in rat striatum membranes
Settings: not given

T1 sequence (P23977 whole entry): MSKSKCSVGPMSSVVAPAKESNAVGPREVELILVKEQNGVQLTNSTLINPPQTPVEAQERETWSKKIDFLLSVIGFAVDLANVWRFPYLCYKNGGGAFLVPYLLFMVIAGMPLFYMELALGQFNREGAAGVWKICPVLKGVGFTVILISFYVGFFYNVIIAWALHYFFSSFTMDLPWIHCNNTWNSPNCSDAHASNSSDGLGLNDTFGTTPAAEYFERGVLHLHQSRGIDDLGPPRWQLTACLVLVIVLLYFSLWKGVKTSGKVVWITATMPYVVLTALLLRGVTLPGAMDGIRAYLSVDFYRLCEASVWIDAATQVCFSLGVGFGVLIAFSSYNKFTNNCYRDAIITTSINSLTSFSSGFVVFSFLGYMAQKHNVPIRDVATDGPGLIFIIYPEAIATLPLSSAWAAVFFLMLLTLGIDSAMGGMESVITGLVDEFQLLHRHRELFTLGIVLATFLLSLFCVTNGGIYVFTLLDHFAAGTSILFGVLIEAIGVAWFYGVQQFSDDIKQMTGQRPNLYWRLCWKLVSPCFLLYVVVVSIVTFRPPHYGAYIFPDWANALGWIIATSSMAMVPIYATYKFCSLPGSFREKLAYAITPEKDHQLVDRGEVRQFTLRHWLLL

| SMILES | IC50 [nM] |
| --- | --- |
| CCC(=O)[C@@H]1C2CCC(CN2)C[C@H]1c1ccc(C)cc1 (relative stereo) [18a, 4β-Propionyl-3α-(p-tolyl)-6-azabicyclo[3.2.2]nonane] | 187 ± 55 |
| C=Cc1ccc(C2CC3CCC(C2C(=O)CC)N(C)C3)cc1 (stereo not drawn) [12e, 3β-(4-Ethenylphenyl)-6-methyl-4β-propionyl-6-azabicyclo[3.2.2]nonane] | 75 |
| CCC(=O)[C@@H]1C2CCC(C[C@H]1c1ccc3ccccc3c1)CN2C (relative stereo) [13b, 6-Methyl-3β-(2-naphthyl)-4α-propionyl-6-azabicyclo[3.2.2]nonane] | 20.8 |
| CCC(=O)[C@@H]1C2CCC(C[C@@H]1c1ccc3ccccc3c1)CN2C (relative stereo) [12b, 6-Methyl-3β-(2-naphthyl)-4β-propionyl-6-azabicyclo[3.2.2]nonane] | 2.8 |
| CCC(=O)[C@@H]1C2CCC(CN2)C[C@@H]1c1ccc(C)cc1 (relative stereo) [compound 19, 4β-Propionyl-3β-(p-tolyl)-6-azabicyclo [3.2.2]nonane] | 24.9 ± 5.6 |
| CCC(=O)C1C(c2ccc(Cl)cc2)CC2CCC1N(C)C2 (stereo not drawn) [12d, 3β-(4-Chlorophenyl)-6-methyl-4β-propionyl-6-azabicyclo[3.2.2]nonane] | 38.1 |
| CCC(=O)C1C(c2ccc(C)cc2)C(c2ccccc2)C2(C)CCC1N(C)C2 (stereo not drawn) [12j, 1,6-Dimethyl-2α-phenyl-4β-propionyl-3β-(p-tolyl)-6-azabicyclo[3.2.2]-nonane] | 5600 |
| CCC(=O)[C@H]1[C@@H](c2ccc(C)cc2)[C@H](C)[C@@H]2CC[C@H]1N(C)C2 (racemic) [12g, 2α,6-Dimethyl-4β-propionyl-3β-(p-tolyl)-6-azabicyclo[3.2.2]nonane] | 1830 |
| CCC(=O)[C@H]1[C@@H](c2ccc(C(C)C)cc2)C[C@@H]2CC[C@H]1N(C)C2 (racemic) [12c, 3β-(4-Isopropylphenyl)-6-methyl-4β-propionyl-6-azabicyclo[3.2.2]nonane] | 7500 |
| C=C(C)c1ccc([C@H]2C[C@@H]3CC[C@H]([C@H]2C(=O)CC)N(C)C3)cc1 (racemic) [12f, 6-Methyl-4β-propionyl-3β-(4-isopropenylphenyl)-6-azabicyclo[3.2.2]nonane] | 880 |
| CCC(=O)C1C(c2ccc(C)cc2)C(C)C2(C)CCC1N(C)C2 (stereo not drawn) [12i, 1,2α,6-Trimethyl-4β-propionyl-3β-(p-tolyl)-6-azabicyclo[3.2.2]nonane] | 2140 |
| CCC(=O)[C@@H]1C2CCC(C[C@@H]1c1ccc(C)cc1)CN2C (relative stereo) [12a, 6-Methyl-4β-propionyl-3β-(p-tolyl)-6-azabicyclo[3.2.2]nonane] | 117 ± 13 |
| CCC(=O)C1C(c2ccc(C)cc2)C(c2ccccc2)C2CCC1N(C)C2 (stereo not drawn) [12h, 6-Methyl-2α-phenyl-4β-propionyl-3β-(p-tolyl)-6-azabicyclo[3.2.2]nonane] | 4100 |

Same assay, conditions: [125I]RTI-55 10 pM, rat striatum membranes; mean ± S.E.M., at least three experiments; tested as racemates; read-out: Binding (nM) DAT (converted)

| SMILES | IC50 [nM] |
| --- | --- |
| C=C(C)c1ccc([C@@H]2C[C@@H]3CC[C@@H](NC3)[C@H]2C(=O)CC)cc1 (racemic) [18b, 4β-Propionyl-3α-(4-isopropenylphenyl)-6-azabicyclo[3.2.2]nonane] | 370 |
| CCC(=O)[C@@H]1C2CCC(C[C@H]1c1ccc(C)cc1)CN2C (relative stereo) [13a, 6-Methyl-4α-propionyl-3β-(p-tolyl)-6-azabicyclo[3.2.2]nonane] | 1160 ± 240 |
| CCC(=O)C1C2CCC(CC1c1ccc(C)cc1)N(C)C2 (stereo not drawn) [compound 23, 6-Methyl-2α-propionyl-3β-(p-tolyl)-6-azabicyclo[3.2.2]nonane] | 4700 ± 900 |
| CCC(=O)C1C(c2ccc(C)cc2)CC2CCC1N(C)C2=O (stereo not drawn) [compound 27, 6-Methyl-4β-propionyl-3β-(p-tolyl)-6-azabicyclo[3.2.2]nonan-7-one] | 7000 |

Same assay, conditions: summary of Table 1

| SMILES | binding affinity at DAT (in words) |
| --- | --- |
| CCC(=O)[C@@H]1C2CCC(CN2)C[C@H]1c1ccc(C)cc1 (relative stereo) [18a, 4β-Propionyl-3α-(p-tolyl)-6-azabicyclo[3.2.2]nonane] | relatively strong binding |
| C=C(C)c1ccc([C@@H]2C[C@@H]3CC[C@@H](NC3)[C@H]2C(=O)CC)cc1 (racemic) [18b, 4β-Propionyl-3α-(4-isopropenylphenyl)-6-azabicyclo[3.2.2]nonane] | relatively strong binding |
| CCC(=O)[C@@H]1C2CCC(C[C@@H]1c1ccc3ccccc3c1)CN2C (relative stereo) [12b, 6-Methyl-3β-(2-naphthyl)-4β-propionyl-6-azabicyclo[3.2.2]nonane] | strongest binding affinity |
| CCC(=O)[C@@H]1C2CCC(C[C@H]1c1ccc(C)cc1)CN2C (relative stereo) [13a, 6-Methyl-4α-propionyl-3β-(p-tolyl)-6-azabicyclo[3.2.2]nonane] | very low binding affinity |
| CCC(=O)C1C2CCC(CC1c1ccc(C)cc1)N(C)C2 (stereo not drawn) [compound 23, 6-Methyl-2α-propionyl-3β-(p-tolyl)-6-azabicyclo[3.2.2]nonane] | very low binding affinity |
| CCC(=O)C1C(c2ccc(C)cc2)CC2CCC1N(C)C2=O (stereo not drawn) [compound 27, 6-Methyl-4β-propionyl-3β-(p-tolyl)-6-azabicyclo[3.2.2]nonan-7-one] | very low binding affinity |

Biological target: T2, serotonin transporter (SERT) (Rattus norvegicus, UniProt P31652)
T2 construct: striatum and frontal cortex dissected from frozen Sprague-Dawley rat brains (Pel-Freez, Rogers, Ark.); tissue Pel-Freez, Rogers, Ark; host or cells: rat frontal cortex membranes (frozen Sprague-Dawley rat brains)
Assay: Displacement of [3H]paroxetine binding at 5-HT transport sites in rat frontal cortex membranes
Settings: not given

T2 sequence (P31652 whole entry): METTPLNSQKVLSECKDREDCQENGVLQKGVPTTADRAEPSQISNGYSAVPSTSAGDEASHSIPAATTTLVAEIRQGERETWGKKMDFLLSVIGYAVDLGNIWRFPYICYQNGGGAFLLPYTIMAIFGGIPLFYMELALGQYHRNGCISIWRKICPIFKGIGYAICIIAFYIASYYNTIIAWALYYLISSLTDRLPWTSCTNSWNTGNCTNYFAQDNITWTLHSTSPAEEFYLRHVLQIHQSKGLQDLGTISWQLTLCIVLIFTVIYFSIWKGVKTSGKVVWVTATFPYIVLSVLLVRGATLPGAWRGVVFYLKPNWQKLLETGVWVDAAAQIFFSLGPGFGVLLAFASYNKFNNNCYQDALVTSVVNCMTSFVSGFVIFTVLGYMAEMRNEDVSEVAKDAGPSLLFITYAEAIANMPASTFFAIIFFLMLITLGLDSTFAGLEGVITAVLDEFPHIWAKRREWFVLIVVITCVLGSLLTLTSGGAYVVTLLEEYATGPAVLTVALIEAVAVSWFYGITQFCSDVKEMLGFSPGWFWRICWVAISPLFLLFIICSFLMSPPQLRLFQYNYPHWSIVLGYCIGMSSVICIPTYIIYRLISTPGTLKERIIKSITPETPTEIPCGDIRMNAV

| SMILES | Ki [nM] |
| --- | --- |
| CCC(=O)[C@@H]1C2CCC(CN2)C[C@H]1c1ccc(C)cc1 (relative stereo) [18a, 4β-Propionyl-3α-(p-tolyl)-6-azabicyclo[3.2.2]nonane] | 469 ± 32 |
| C=Cc1ccc(C2CC3CCC(C2C(=O)CC)N(C)C3)cc1 (stereo not drawn) [12e, 3β-(4-Ethenylphenyl)-6-methyl-4β-propionyl-6-azabicyclo[3.2.2]nonane] | 116 |
| CCC(=O)[C@@H]1C2CCC(C[C@H]1c1ccc3ccccc3c1)CN2C (relative stereo) [13b, 6-Methyl-3β-(2-naphthyl)-4α-propionyl-6-azabicyclo[3.2.2]nonane] | 6.2 |
| CCC(=O)[C@@H]1C2CCC(C[C@@H]1c1ccc3ccccc3c1)CN2C (relative stereo) [12b, 6-Methyl-3β-(2-naphthyl)-4β-propionyl-6-azabicyclo[3.2.2]nonane] | 13.4 ± 0.0138 |
| CCC(=O)[C@@H]1C2CCC(CN2)C[C@@H]1c1ccc(C)cc1 (relative stereo) [compound 19, 4β-Propionyl-3β-(p-tolyl)-6-azabicyclo [3.2.2]nonane] | 156 ± 26 |
| CCC(=O)C1C(c2ccc(Cl)cc2)CC2CCC1N(C)C2 (stereo not drawn) [12d, 3β-(4-Chlorophenyl)-6-methyl-4β-propionyl-6-azabicyclo[3.2.2]nonane] | 860 |
| CCC(=O)C1C(c2ccc(C)cc2)C(c2ccccc2)C2(C)CCC1N(C)C2 (stereo not drawn) [12j, 1,6-Dimethyl-2α-phenyl-4β-propionyl-3β-(p-tolyl)-6-azabicyclo[3.2.2]-nonane] | > 2500 |
| CCC(=O)[C@H]1[C@@H](c2ccc(C)cc2)[C@H](C)[C@@H]2CC[C@H]1N(C)C2 (racemic) [12g, 2α,6-Dimethyl-4β-propionyl-3β-(p-tolyl)-6-azabicyclo[3.2.2]nonane] | > 2500 |
| CCC(=O)[C@H]1[C@@H](c2ccc(C(C)C)cc2)C[C@@H]2CC[C@H]1N(C)C2 (racemic) [12c, 3β-(4-Isopropylphenyl)-6-methyl-4β-propionyl-6-azabicyclo[3.2.2]nonane] | 1760 |
| C=C(C)c1ccc([C@H]2C[C@@H]3CC[C@H]([C@H]2C(=O)CC)N(C)C3)cc1 (racemic) [12f, 6-Methyl-4β-propionyl-3β-(4-isopropenylphenyl)-6-azabicyclo[3.2.2]nonane] | 32.8 |
| CCC(=O)C1C(c2ccc(C)cc2)C(C)C2(C)CCC1N(C)C2 (stereo not drawn) [12i, 1,2α,6-Trimethyl-4β-propionyl-3β-(p-tolyl)-6-azabicyclo[3.2.2]nonane] | > 2500 |
| CCC(=O)[C@@H]1C2CCC(C[C@@H]1c1ccc(C)cc1)CN2C (relative stereo) [12a, 6-Methyl-4β-propionyl-3β-(p-tolyl)-6-azabicyclo[3.2.2]nonane] | 2230 ± 410 |
| CCC(=O)C1C(c2ccc(C)cc2)C(c2ccccc2)C2CCC1N(C)C2 (stereo not drawn) [12h, 6-Methyl-2α-phenyl-4β-propionyl-3β-(p-tolyl)-6-azabicyclo[3.2.2]nonane] | > 2500 |

Same assay, conditions: SERT binding value divided by DAT binding value

| SMILES | Ratio SERT/DAT |
| --- | --- |
| CCC(=O)[C@@H]1C2CCC(CN2)C[C@H]1c1ccc(C)cc1 (relative stereo) [18a, 4β-Propionyl-3α-(p-tolyl)-6-azabicyclo[3.2.2]nonane] | 2.5 |
| C=C(C)c1ccc([C@@H]2C[C@@H]3CC[C@@H](NC3)[C@H]2C(=O)CC)cc1 (racemic) [18b, 4β-Propionyl-3α-(4-isopropenylphenyl)-6-azabicyclo[3.2.2]nonane] | 0.02 |
| C=Cc1ccc(C2CC3CCC(C2C(=O)CC)N(C)C3)cc1 (stereo not drawn) [12e, 3β-(4-Ethenylphenyl)-6-methyl-4β-propionyl-6-azabicyclo[3.2.2]nonane] | 1.9 |
| CCC(=O)[C@@H]1C2CCC(C[C@H]1c1ccc3ccccc3c1)CN2C (relative stereo) [13b, 6-Methyl-3β-(2-naphthyl)-4α-propionyl-6-azabicyclo[3.2.2]nonane] | — 0.3 |
| CCC(=O)[C@@H]1C2CCC(C[C@@H]1c1ccc3ccccc3c1)CN2C (relative stereo) [12b, 6-Methyl-3β-(2-naphthyl)-4β-propionyl-6-azabicyclo[3.2.2]nonane] | 4.8 |
| CCC(=O)[C@@H]1C2CCC(CN2)C[C@@H]1c1ccc(C)cc1 (relative stereo) [compound 19, 4β-Propionyl-3β-(p-tolyl)-6-azabicyclo [3.2.2]nonane] | 6.3 |
| CCC(=O)C1C(c2ccc(Cl)cc2)CC2CCC1N(C)C2 (stereo not drawn) [12d, 3β-(4-Chlorophenyl)-6-methyl-4β-propionyl-6-azabicyclo[3.2.2]nonane] | 23 |
| CCC(=O)[C@H]1[C@@H](c2ccc(C(C)C)cc2)C[C@@H]2CC[C@H]1N(C)C2 (racemic) [12c, 3β-(4-Isopropylphenyl)-6-methyl-4β-propionyl-6-azabicyclo[3.2.2]nonane] | 0.23 |
| C=C(C)c1ccc([C@H]2C[C@@H]3CC[C@H]([C@H]2C(=O)CC)N(C)C3)cc1 (racemic) [12f, 6-Methyl-4β-propionyl-3β-(4-isopropenylphenyl)-6-azabicyclo[3.2.2]nonane] | 0.03 |
| CCC(=O)[C@@H]1C2CCC(C[C@@H]1c1ccc(C)cc1)CN2C (relative stereo) [12a, 6-Methyl-4β-propionyl-3β-(p-tolyl)-6-azabicyclo[3.2.2]nonane] | 19 |

Same assay, conditions: SERT versus DAT binding

| SMILES | selectivity for SERT |
| --- | --- |
| C=C(C)c1ccc([C@H]2C[C@@H]3CC[C@H]([C@H]2C(=O)CC)N(C)C3)cc1 (racemic) [12f, 6-Methyl-4β-propionyl-3β-(4-isopropenylphenyl)-6-azabicyclo[3.2.2]nonane] | most selective for SERT |

Same assay, conditions: [3H]paroxetine 0.4 nM, rat frontal cortex membranes; Cheng-Prusoff; mean ± S.E.M.; tested as racemates; read-out: Binding (nM) SERT (converted)

| SMILES | Ki [nM] |
| --- | --- |
| C=C(C)c1ccc([C@@H]2C[C@@H]3CC[C@@H](NC3)[C@H]2C(=O)CC)cc1 (racemic) [18b, 4β-Propionyl-3α-(4-isopropenylphenyl)-6-azabicyclo[3.2.2]nonane] | 6.48 |
| CCC(=O)[C@@H]1C2CCC(C[C@H]1c1ccc(C)cc1)CN2C (relative stereo) [13a, 6-Methyl-4α-propionyl-3β-(p-tolyl)-6-azabicyclo[3.2.2]nonane] | > 2500 |
| CCC(=O)C1C(c2ccc(C)cc2)CC2CCC1N(C)C2=O (stereo not drawn) [compound 27, 6-Methyl-4β-propionyl-3β-(p-tolyl)-6-azabicyclo[3.2.2]nonan-7-one] | > 2500 |

Same assay, conditions: summary of Table 1

| SMILES | binding affinity at SERT (in words) |
| --- | --- |
| CCC(=O)[C@@H]1C2CCC(CN2)C[C@H]1c1ccc(C)cc1 (relative stereo) [18a, 4β-Propionyl-3α-(p-tolyl)-6-azabicyclo[3.2.2]nonane] | relatively strong binding |
| C=C(C)c1ccc([C@@H]2C[C@@H]3CC[C@@H](NC3)[C@H]2C(=O)CC)cc1 (racemic) [18b, 4β-Propionyl-3α-(4-isopropenylphenyl)-6-azabicyclo[3.2.2]nonane] | relatively strong binding |
| CCC(=O)[C@@H]1C2CCC(C[C@@H]1c1ccc3ccccc3c1)CN2C (relative stereo) [12b, 6-Methyl-3β-(2-naphthyl)-4β-propionyl-6-azabicyclo[3.2.2]nonane] | strongest binding affinity |
| CCC(=O)[C@@H]1C2CCC(C[C@H]1c1ccc(C)cc1)CN2C (relative stereo) [13a, 6-Methyl-4α-propionyl-3β-(p-tolyl)-6-azabicyclo[3.2.2]nonane] | very low binding affinity |
| CCC(=O)C1C(c2ccc(C)cc2)CC2CCC1N(C)C2=O (stereo not drawn) [compound 27, 6-Methyl-4β-propionyl-3β-(p-tolyl)-6-azabicyclo[3.2.2]nonan-7-one] | very low binding affinity |

Tested on: not given
Assay: not given
Settings: not given

| SMILES | melting point [°C] |
| --- | --- |
| CCC(=O)C1C(c2ccc(C)cc2)C(c2ccccc2)C2(C)CCC1N(C)C2 (stereo not drawn) [12j, 1,6-Dimethyl-2α-phenyl-4β-propionyl-3β-(p-tolyl)-6-azabicyclo[3.2.2]-nonane] | 141 to 144 |
| CCC(=O)C1C(c2ccc(C)cc2)C(c2ccccc2)C2CCC1N(C)C2 (stereo not drawn) [12h, 6-Methyl-2α-phenyl-4β-propionyl-3β-(p-tolyl)-6-azabicyclo[3.2.2]nonane] | 172 to 173 |
